Where “and” joins values, the source holds several entries; their conditions need not be identical. Identical values can stand only once.
How the values were obtained:
[1] = molecular target: T1, chymotrypsin-like (CT-L) activity of purified 20S rabbit proteasome (Oryctolagus cuniculus, UniProt G1T4Q9); assay: Proteolytic activity of purified 20S proteasome, fluorogenic substrate Suc-Leu-Leu-Val-Tyr-AMC; format: biochemical; details: purified rabbit 20S proteasome
T1 sequence (G1T4Q9 1-263): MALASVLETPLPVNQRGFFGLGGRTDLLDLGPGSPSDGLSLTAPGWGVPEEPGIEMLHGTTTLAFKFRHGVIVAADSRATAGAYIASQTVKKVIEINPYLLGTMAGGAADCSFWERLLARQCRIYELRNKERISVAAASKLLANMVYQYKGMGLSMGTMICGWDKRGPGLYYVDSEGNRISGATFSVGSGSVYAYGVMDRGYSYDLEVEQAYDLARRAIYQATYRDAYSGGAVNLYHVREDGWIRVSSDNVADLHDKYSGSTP

[2] = tested on: MCF-7 breast cancer cells; assay: MTT metabolism assay; format: cell-based, human; details: Homo sapiens, MCF7, 72 h, MCF-7, 72 h (Table 6); read-out: IC50 for cell viability measured by MTT assay in MCF-7 human breast cancer cells
Description: Cells were plated in 96-well plates in 100 μl medium and allowed to attach overnight. […] Media was aspirated after 24 or 72 hours and replaced with 100 μl complete media containing 1 mg/ml MTT and incubated for three hours at 37° C. in 5% CO2 humidified incubator. Media was then aspirated and DMSO was added. Cells were incubated for 10 min at room temperature while shaking, and the absorbance was determined at 540 nm using a μQuant spectrophotometric plate reader (Bio-TEK, Winooski, Vt.).
Cells were plated in 96-well plates in 100 μl medium and allowed to attach overnight. Cells were then incubated for 72 h with varying concentrations of PI-083, YG1-080, YG1-075, HL2-090-2, HL2-090-4, HL2-090-6, and HL2-090-9 or vehicle control (DMSO). Media was aspirated and replaced with 100 μl complete media containing 1 mg/ml MTT and incubated for three hours at 37° C. in 5% CO2 humidified incubator. Media was then aspirated and DMSO was added. Cells were incubated for 10 min at room temperature while shaking, and the absorbance was determined at 540 nm using a μQuant spectrophotometric plate reader (Bio-TEK, Winooski, Vt.).

[3] = molecular target: T2, CT-L activity of the proteasome in MCF-7 human breast cancer cells (Homo sapiens, UniProt P20618+P28074); assay: Proteolytic activity in cell lysates of treated intact MCF-7 cells; format: cell-based; details: intact cells treated 16 h, CT-L measured in cell lysates; two determinations where two values
T2 construct: endogenous in cells; host or cells: MCF-7
Description: Human MCF-7 breast cancer cells were cultured in DMEM medium containing 10% fetal calf serum (FCS) and 100 units/ml of penicillin and 100 μg/ml of streptomycin. Cells were maintained at 37° C. in a humidified incubator in an atmosphere of 5% CO2. Cells were treated with different concentrations of PI-083, YG1-080, YG1-075, HL2-090-2, HL2-090-4, HL2-090-6, and HL2-090-9 or vehicle control (DMSO) for 16 h.
Intact cells were treated with compounds and lysates prepared as described above. Cell lysates (5 μg) was incubated with 20 μM Suc-Leu-Leu-Val-Tyr-AMC for the CT-L activity for 1 h at 37° C. in 100 μl of assay buffer (50 mM Tris-HCl, pH 7.6). After incubation, production of hydrolyzed 7-amido-4-methyl-coumarin (AMC) groups was measured using a WALLAC Victor^2 1420 Multilabel Counter with an excitation filter of 355 nm and an emission filter of 460 nm (Perkin Elmer Life Sciences, Turku, Finland).

IC50 ([1]; PI-083 derivatives (Table 7, naphthoquinone library), read-out: IC50 (μM) Chymotrypsin-like activity): 1.1 µM
proteasome (chymotrypsin-like) inhibitory activity, in words [1]: equally as active as PI-083
IC50 [2]: 2.41 ± 0.19 µM
melting point: > 300 °C
IC50 [3]: 5.1 µM and 4.7 µM
SMILES: NS(=O)(=O)c1ccc(NC2=C(Cl)C(=O)c3ccccc3C2=O)cc1 [Compound 2t, 4-(3-chloro-1,4-dioxo-1,4-dihydronaphthalen-2-ylamino)benzenesulfonamide]

Source: patent publication US8673910B2, “Proteasome inhibitors for selectively inducing apoptosis in cancer cells” (H. Lee Moffitt Cancer Center and Research Institute, priority 2008, dated 2014)
